According to patent publication US20200179510A1, “LOW DENSITY LIPOPROTEIN RECEPTOR RELATED PROTEIN 5 INHIBITION SUPPRESSES TUMOR FORMATION” (YALE UNIVERSITY, priority 2017, published 2020):

How the values were obtained:
[1] = tested on: Wnt reporter gene TOPFlash; test: Wnt reporter gene (TOPFlash) assay in HEK293 cells; type: cell-based; conditions: for Wnt reporter gene activity: DKK2 5 nM, Wnt3a 2 nM, CHIR 1 μM, 6 hrs (FIG. 10D)
Method: The Stat5 reporter assays were done in HEK293T cells for activated JAK1-induced activity or in those stably expressing JAK3, IL2/15Rβ and the common receptor γ subunit for IL15 induced activity. Cells were seeded at 8×10^4 cells per well in 48 well plate. The next day, cells were transfected by Lipofectamine 2000 (Invitrogen) with the pGL4.52-STAT5-Luciferase (Promega) and tagRFP (internal control) plasmids together with other plasmids expressing genes of interest. The total amount of plasmid was kept at 125 ng per well. The cells were added 24 hours after transfection with IL15/IL15Rα-Fc complex or mock. Six hours later, the cells were lysed and subjected to RFP fluorescence and luciferase luminescence measurement using an Envision Multilabel plate reader. The reporter gene activity is shown after being normalized against RFP readings. The LEF reporter assay was carried out in HEK293 cells that were transfected with the TOPFlash and GFP plasmids. The rest is the same as above. The reporter gene activity is shown after being normalized against GFP readings.
A functional mouse monoclonal anti-DKK2 antibody (5F8) was developed to specifically target and neutralize DKK2, but to not cross react with DKK-1. […] It has been shown that DKK2 as well as other DKK family proteins, inhibit canonical Wnt signaling by binding to Wnt co-receptor LRP 5/6 with high affinity and competing with Wnt molecules for receptor binding (MacDonald, B., et al., Dev Cell, 2009. 17(1): p. 9-26; Bao, J., et al., Sci Signal, 2012. 5(224): pe22). To determine if 5F8 diminished DKK2 inhibition of Wnt signaling, a Wnt reporter gene assay was used to measure Wnt activity. HEK293 cells were transfected with Wnt reporter gene TOPFlash and Wnt reporter activity was examined.

[2] = tested on: primary mouse NK cells; test: IL-15-cultured primary mouse NK cells (flow cytometry, Western); type: cell-based; conditions: for granzyme B in primary NK cells: WNT3a 2 nM, CHIR 1 μM
Method: Cells in single cell suspension were fixed with 2% PFA (Santa-Cruz sc-281692). After washing with a Flow Cytometry Staining Buffer (eBioscience 00-4222-26), cells were stained with antibodies for cell surface markers for 1 hour on ice in the dark. For staining of intracellular proteins, the cells were washed and resuspended in the Permeabilization Buffer (BD 554723) and stained by antibodies in the Permeabilization Buffer for 1 hour on ice in the dark. The cells were then pelleted and resuspended in the Flow Cytometry Staining Buffer for flow cytometry analysis.
Mouse primary NK and CD8+ T cells were isolated from the spleens by using the NK cell and CD8+ T cell isolation kits according to the manufacturer's instructions (Miltenyi Biotec #130-090-864 and #130-104-075), respectively. Primary NK cells were cultured in RPMI-1640 (Gibco, 11875-093) supplemented with 10% FBS, penicillin (100 U/ml), streptomycin (100 μg/ml), 2-mercaptoethanol (500 μM) and HEPES (10 mM) at 37° C. supplemented with 5% CO2 in the presence of recombinant murine IL-15 (50 ng/ml) for 24 hours before treatment with DKK2, CHIR99021, or WNT3A. CD8+ T cells were cultured in the same culture medium and condition as NK cells, but supplemented with IL-15 (200 ng/ml) and IL-15 Rα (1 μg/ml recombinant Mouse IL-15 receptor alpha Fc chimera Protein from R&D) for 96 hours before DKK2 treatment. Mouse primary intraepithelial lymphocytes (IELs) were prepared as described in (Little et al., The Journal of Immunology 175, 6713-6722 (2005) and Li et al. Infect Immun 80, 565-574 (2012)). In brief, the small intestine was everted, divided into four pieces, and washed twice in phosphate-buffered saline (PBS) containing 100 U/ml penicillin/streptomycin The specimens were then incubated with stirring at 37° C. in prewarmed Ca2+ and Mg2+-free Hanks' solution containing 100 U/ml penicillin-streptomycin, 5% fetal calf serum (FCS), 2 mM dithiothreitol (DTT), and 5 mM EDTA for 30 min, followed by vigorous shaking for 30 s. The supernatants were passed over two nylon wool columns to remove undigested tissue debris. The lymphocytes obtained were pooled and enriched on a discontinuous (40% and 70%) Percoll density gradient. Cells at the interface between the 40% and […], fractions (IELs) were collected for treatment with IL-15 (200 ng/ml) and DKK2 (200 ng/ml), followed by flow analysis.

Cc1c[nH]c(-c2cnc(NCCNc3ccc(C#N)cn3)nc2-c2ccc(Cl)cc2Cl)n1 [CHIR99021, reference compound]
Wnt reporter gene activity [1]: strong effect on Wnt reporter gene activity | granzyme B in primary NK cells ([2]; 24 hours): no significant effect on granzyme B

WNT3A
Wnt reporter gene activity [1]: a strong increase in the reporter gene activity | Wnt reporter activity ([1]; HEK293, TOPFlash, conditioned medium (FIG. 1E)): increased Wnt reporter activity | β-catenin accumulation in LRP5-deficient NK cells ([2]; LRP5-deficiency): did not affect β-catenin accumulation | β-catenin accumulation in LRP6-deficient NK cells ([2]; LRP6-deficient): did not induce β-catenin accumulation | β-catenin accumulation in primary NK cells ([2]; WNT3A 5 nM, 24 hours, Western): induced β-catenin accumulation | granzyme B in primary NK cells ([2]; 24 hours): no significant effect on granzyme B expression
